≈ marks a conversion by molar mass, not a printed value. Entries after “also recorded” stand apart in the source; their conditions may differ. Where two headings read alike, the source gives them in different places.
Columns and labels:
[1] = Dynamic vapor sorption (moisture sorption) experiment; assay type: physicochemical; conditions: for XRPD (post DVS): form by XRPD after moisture sorption, sample dried at 60° C. and 0% RH; for % wt change at 60% RH: moisture adsorbed at 60% RH; for % wt change at 90% RH: moisture adsorbed at 90% RH
[2] = Stability study under thermal stress (oven at 60° C. for 7 days); assay type: physicochemical; conditions: for XRPD pattern / stability after thermal stress: 60° C. for 7 days
Method: Forms A, B, and D were stored in an oven maintained at 60° C. for 7 days.

[3] = Twelve-month stability study at 25° C./60% RH; assay type: physicochemical; conditions: for Appearance / HPLC Purity / Moisture (%) / XRPD: 25° C./60% RH
Method: (§1) Form B was stored at 25° C./60% RH for twelve months and at 40° C./75% RH for six months.

[4] = Six-month stability study at 40° C./75% RH; assay type: physicochemical
Method: as §1

[5] = TG-IR experiment monitoring potential release of hydrogen chloride; assay type: physicochemical; conditions: heated at 20° C./minute to approximately 140° C.; listed as pure Form B
Method: Thermogravimetric infrared (TG-IR) analysis was performed on a TA Instruments Q5000 IR thermogravimetric (TG) analyzer interfaced to a Magna-IR 560® Fourier transform infrared (FT-IR) spectrophotometer (Thermo Nicolet) equipped with an Ever-Glo mid/far IR source, a potassium bromide (KBr) beamsplitter, and a mercury cadmium telluride (MCT-A) detector. The FT-IR wavelength verification was performed using polystyrene, and the TG calibration standards were nickel and Alumel™. The sample was placed in a platinum sample pan and the pan was inserted into the TG furnace. The TG instrument was started first, immediately followed by the FT-IR instrument. The TG instrument was operated under a flow of helium at 90 and 10 cc/minute for the purge and balance, respectively. The furnace was heated under helium at a rate of 20° C./minute to a final temperature of approximately 140° C. IR spectra were collected approximately every 32 seconds for approximately 7.5 minutes. Each IR spectrum represents 32 co-added scans collected at a spectral resolution of 4 cm-1. Volatiles were identified from a search of the High Resolution Nicolet Vapor Phase spectral library. […]

[6] = Phase 1a toxicity trial in 75 women; assay type: in vivo, human
[7] = tested on: CDK4/6-dependent tumorigenic cell lines including breast, melanoma, leukemia, and lymphoma cells; conditions: variety of CDK4/6-dependent tumorigenic cell lines; cited from earlier work
[8] = tested on: RB phosphorylation; conditions: in vitro and in vivo; cited from earlier work
[9] = Solubility estimate by aliquot addition with visual observation; assay type: physicochemical; conditions: thermodynamic from solid
Method: Solubility estimates of impure Form B were attempted in various predominantly HCl acidic aqueous acetone solvent mixtures using an aliquot addition method that involved visual observation. Aliquots of various solvents or diluent/organic solvent mixtures were added to measured amounts of impure Form B with agitation (typically sonication) at ambient temperature until complete dissolution was achieved, as judged by visual observation. Solubilities were calculated based on the total solvent used to give a solution; actual solubilities may be greater because of the volume of solvent portions utilized or a slow rate of dissolution. […] If dissolution occurred at the first aliquot, the value was reported as “>”. Due to the haziness of the obtained samples, effective solubility estimates were difficult to discern.

Question: For `CC(C)N1CCN(c2ccc(Nc3ncc4cc5n(c4n3)C3(CCCCC3)CNC5=O)nc2)CC1` [Form A], which “stability in the moisture sorption experiment” value [1] is on record?
Answer: unstable; also recorded: not stable

Question: What about the “XRPD (post DVS)” value [1] of the same molecule?
Answer: Form K

Question: What about the “% wt change at 60% RH” value [1] of the same molecule?
Answer: 14.9 wt %

Question: And the “% wt change at 90% RH” value [1]?
Answer: 15.8 wt %

Question: And the “XRPD pattern / stability after thermal stress” value [2]?
Answer: A new pattern; also recorded: converted to a new Form

Question: And the “XRPD after equilibrium at room temperature” value ([2]; three further days at room temperature after 60° C. for 7 days)?
Answer: converted back to Form A; also recorded: changed back to Form A

Question: Which results are given for `CC(C)N1CCN(c2ccc(Nc3ncc4cc5n(c4n3)C3(CCCCC3)CNC5=O)nc2)CC1` [Form B]?
Answer: stability in the moisture sorption experiment [1]: stable; XRPD (post DVS) [1]: remained in Form B; also recorded: remained unchanged as Form B; % wt change at 60% RH [1]: 5.8 wt %; % wt change at 90% RH [1]: 5.9 wt %; XRPD pattern / stability after thermal stress [2]: stable; also recorded: No change; also recorded: remained unchanged; time stable in long-term stability study ([3]; 25° C. and 60% relative humidity): at least 1 year; Appearance ([3]; 0 M): Yellow; HPLC Purity ([3]; 0 M): 99.5%; Moisture (%) ([3]; 0 M): 4.9%; XRPD ([3]; 0 M): Form B; Appearance ([3]; 3 M): Yellow solid; HPLC Purity ([3]; 3 M): 99.5%; Moisture (%) ([3]; 3 M): 4.07%; Appearance ([3]; 6 M): Yellow; HPLC Purity ([3]; 6 M): 99.5%; Moisture (%) ([3]; 6 M): 7.53%; Appearance ([3]; 9 M): Yellow solid; HPLC Purity ([3]; 9 M): 99.6%; Moisture (%) ([3]; 9 M): 7.29%; Appearance ([3]; 12 M): Yellow; HPLC Purity ([3]; 12 M): 99.5%; Moisture (%) ([3]; 12 M): 7.48%; XRPD ([3]; 12 M): conformed to the reference spectrum; also recorded: Form B; Appearance ([4]; 0 M): Yellow solid; HPLC Purity ([4]; 0 M): 99.5%; Moisture (%) ([4]; 0 M): 4.9%; XRPD ([4]; 0 M): Form B; Appearance ([4]; 1 M): Yellow solid; HPLC Purity ([4]; 1 M): 99.5%; Moisture (%) ([4]; 1 M): 2.75%; Appearance ([4]; 3 M): Yellow solid; HPLC Purity ([4]; 3 M): 99.5%; Moisture (%) ([4]; 3 M): 7.47%; XRPD ([4]; 3 M): Form B; Appearance ([4]; 6 M): Yellow solid; HPLC Purity ([4]; 6 M): 99.5%; Moisture (%) ([4]; 6 M): 7.53%; XRPD ([4]; 6 M): conformed to the reference spectrum; also recorded: Form B; volatiles released during TG-IR [5]: only water, and no hydrogen chloride, was released

Question: With `CC(C)N1CCN(c2ccc(Nc3ncc4cc5n(c4n3)C3(CCCCC3)CNC5=O)nc2)CC1` [Form C] as the molecule, how does the “XRPD pattern / stability after thermal stress” value [2] read?
Answer: remained unchanged

Question: Which results are given for `CC(C)N1CCN(c2ccc(Nc3ncc4cc5n(c4n3)C3(CCCCC3)CNC5=O)nc2)CC1` [Form D]?
Answer: stability in the moisture sorption experiment [1]: unstable; also recorded: not stable; XRPD (post DVS) [1]: Form K; % wt change at 60% RH [1]: 4.4 wt %; XRPD pattern / stability after thermal stress [2]: No change

Question: What does the source list for `CC(C)N1CCN(c2ccc(Nc3ncc4cc5n(c4n3)C3(CCCCC3)CNC5=O)nc2)CC1` [Form G1T38, 2′-((5-(4-isopropylpiperazin-1-yl)pyridin-2-yl)amino)-7′,8′-dihydro-6′H-spiro[cyclohexane-1,9′-pyrazino[1′,2′:1,5]pyrrolo[2,3-d]pyrimidin]-6′-one]?
Answer: tolerability [6]: well tolerated with no significant adverse events; inhibition of cell proliferation [7]: induces inhibition of cell proliferation; inhibition of RB phosphorylation [8]: inhibits RB phosphorylation

Question: What does the source list for `CC(C)N1CCN(c2ccc(Nc3ncc4cc5n(c4n3)C3(CCCCC3)CNC5=O)nc2)CC1` [Impure Form B]?
Answer: solubility ([9]; aqueous buffer, 2.0M HCl, ambient, read-out: Solubility): 4000 µg/mL (≈ 8.43 mM); solubility ([9]; aqueous buffer, 5.0M HCl, ambient, read-out: Solubility): 3000 µg/mL (≈ 6.32 mM); solubility ([9]; aqueous buffer, 5.0M HCl:water 1:2, ambient, read-out: Solubility): 7000 µg/mL (≈ 14.7 mM); solubility ([9]; aqueous with cosolvent or surfactant or cyclodextrin, 1M HCl:acetone 50:50, ambient, read-out: Solubility): 4000 µg/mL (≈ 8.43 mM); solubility ([9]; aqueous with cosolvent or surfactant or cyclodextrin, 1M HCl:acetone 60:40, ambient, read-out: Solubility): 4000 µg/mL (≈ 8.43 mM); solubility ([9]; aqueous with cosolvent or surfactant or cyclodextrin, 1M HCl:acetone 67:33, ambient, read-out: Solubility): 6000 µg/mL (≈ 12.6 mM); solubility ([9]; aqueous with cosolvent or surfactant or cyclodextrin, 1.0M HCl:acetone 75:25, ambient, read-out: Solubility): 7000 µg/mL (≈ 14.7 mM); solubility ([9]; aqueous with cosolvent or surfactant or cyclodextrin, predominantly HCl acidic aqueous acetone solvent mixtures, ambient temperature, read-out: solubility in the tested solvent mixtures): 3000 to 7000 µg/mL (≈ 6.32 to 14.7 mM); solubility ([9]; organic solvent or mixture, 0.1M HCl:acetone 20:80, ambient, read-out: Solubility): < 1000 µg/mL; solubility ([9]; organic solvent or mixture, 0.5M HCl:acetone 10:90, ambient, read-out: Solubility): < 1000 µg/mL; solubility ([9]; organic solvent or mixture, 0.5M HCl:acetone 20:80, ambient, read-out: Solubility): < 1000 µg/mL; solubility ([9]; organic solvent or mixture, 1M HCl:acetone 5:95, ambient, read-out: Solubility): < 1000 µg/mL; solubility ([9]; organic solvent or mixture, 1M HCl:acetone 10:90, ambient, read-out: Solubility): < 1000 µg/mL; solubility ([9]; organic solvent or mixture, 1M HCl:acetone 20:80, ambient, read-out: Solubility): < 1000 µg/mL; solubility ([9]; organic solvent or mixture, 1M HCl:acetone 33:67, ambient, read-out: Solubility): 2000 µg/mL (≈ 4.21 mM); solubility ([9]; organic solvent or mixture, Water:acetone 1:2, ambient, read-out: Solubility): 3000 µg/mL (≈ 6.32 mM); solubility ([9]; Water, ambient, read-out: Solubility): < 7000 µg/mL; solubility ([9]; water:acetone 3:1, aqueous with cosolvent or surfactant or cyclodextrin, Water:cetone 3:1, ambient, read-out: Solubility): < 3000 µg/mL

From patent US11261193B2, “Morphic forms of G1T38 and methods of manufacture thereof” (G1 Therapeutics, Inc., priority 2017, dated 2022)
